Assay results taken from article PMC6332289, “Anti-Oxidant, Anti-Aging, and Anti-Melanogenic Properties of the Essential Oils from Two Varieties of Alpinia zerumbet” (Molecules, 2015).
Values after ≈ are worked out from the molar mass of the structure shown.

Target: T1, Clostridium histolyticum collagenase (ChC)
T1 construct: gene colG; commercial collagenase from Sigma-Aldrich
Experiment: FALGPA hydrolysis, absorbance at […] nm
Assay type: biochemical, Hathewaya histolytica
Conditions: 50 mM tricine, 400 mM NaCl, 10 mM CaCl2, pH 7.5; 0.8 mM FALGPA; 15 min preincubation

CC1(C)CC[C@]2(C(=O)O)CC[C@]3(C)C(=CC[C@@H]4[C@@]5(C)CC[C@H](O)C(C)(C)[C@@H]5CC[C@]43C)[C@@H]2C1 [oleanolic acid]
IC50: 21 ± 0.2 µg/mL (≈ 46 µM)
